One test concerns the target Serotonin 2 (5-HT2) receptor (Homo sapiens, UniProt P41595+P28223+P28335). The test is described as follows: Binding affinity to 5HT2 receptor. Format: protein assay.
Chain of Beta-1 adrenergic receptor (P08588 whole entry): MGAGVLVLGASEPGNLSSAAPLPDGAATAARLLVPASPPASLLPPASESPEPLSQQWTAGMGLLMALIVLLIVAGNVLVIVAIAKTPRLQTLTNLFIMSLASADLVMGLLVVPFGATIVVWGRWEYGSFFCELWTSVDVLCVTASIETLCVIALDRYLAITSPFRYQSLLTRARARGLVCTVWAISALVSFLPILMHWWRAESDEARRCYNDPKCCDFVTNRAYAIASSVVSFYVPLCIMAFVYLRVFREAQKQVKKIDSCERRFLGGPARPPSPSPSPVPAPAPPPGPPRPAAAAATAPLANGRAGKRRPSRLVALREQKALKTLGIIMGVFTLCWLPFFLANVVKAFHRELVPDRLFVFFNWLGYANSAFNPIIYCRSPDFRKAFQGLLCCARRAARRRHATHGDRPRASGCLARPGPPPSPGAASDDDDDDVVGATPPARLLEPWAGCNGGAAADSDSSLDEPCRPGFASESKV
Chain of 5-hydroxytryptamine receptor 4 (O70528 whole entry): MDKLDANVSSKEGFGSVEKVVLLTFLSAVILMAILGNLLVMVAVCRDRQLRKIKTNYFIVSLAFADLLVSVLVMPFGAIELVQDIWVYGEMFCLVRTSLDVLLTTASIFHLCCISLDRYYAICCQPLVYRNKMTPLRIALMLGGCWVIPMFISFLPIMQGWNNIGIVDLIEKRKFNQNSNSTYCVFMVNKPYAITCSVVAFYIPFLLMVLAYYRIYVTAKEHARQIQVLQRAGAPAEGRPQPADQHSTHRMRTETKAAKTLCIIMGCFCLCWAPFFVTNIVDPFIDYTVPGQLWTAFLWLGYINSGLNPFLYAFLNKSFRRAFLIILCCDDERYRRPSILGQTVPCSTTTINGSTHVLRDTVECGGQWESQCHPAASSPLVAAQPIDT
Chain of D(1A) dopamine receptor (P21728 whole entry): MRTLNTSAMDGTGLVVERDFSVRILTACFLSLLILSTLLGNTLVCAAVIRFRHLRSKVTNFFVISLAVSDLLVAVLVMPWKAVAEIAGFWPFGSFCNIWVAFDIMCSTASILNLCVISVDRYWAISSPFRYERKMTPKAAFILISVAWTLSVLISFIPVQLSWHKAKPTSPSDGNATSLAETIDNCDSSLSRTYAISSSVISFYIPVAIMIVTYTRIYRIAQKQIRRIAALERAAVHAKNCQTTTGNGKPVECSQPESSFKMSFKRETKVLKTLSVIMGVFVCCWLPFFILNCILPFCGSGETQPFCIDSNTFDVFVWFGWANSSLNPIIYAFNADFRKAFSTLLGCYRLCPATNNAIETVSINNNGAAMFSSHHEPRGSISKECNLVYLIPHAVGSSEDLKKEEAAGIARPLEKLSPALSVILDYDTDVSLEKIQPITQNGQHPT
On to `COc1cc(N)c(Cl)cc1C(=O)NC[C@@H]1CCN2CCC[C@@H]12`, for which the IC50 is over 10 µM.
Still for that read-out and setting: then `COc1cc(N)c(Cl)cc1C(=O)N[C@@H]1C2CC3CN(C2)CC31` (stereo partly specified), with over 10 µM; and `Cn1nc(C(=O)OC[C@@H]2CCN3CCC[C@@H]23)c2ccccc21` (single isomer, unassigned), with over 10 µM; and `O=C(OC[C@@H]1CCN2CCC[C@@H]12)c1c[nH]c2ccccc12`, with over 10 µM.
On the same count and under the same terms, next, `O=C(NC[C@@H]1CCN2CCC[C@@H]12)c1cc(Cl)cn2ccnc12`: over 10 µM.
The same measure, in the same setting: then `O=C(OC[C@@H]1CCN2CCC[C@@H]12)c1[nH]nc2ccccc12` (single isomer, unassigned), with over 10 µM.

The target of the next test is D(2) dopamine receptor (Homo sapiens, UniProt P14416). The test is described as follows: Binding affinity to dopamine receptor D2.
Chain of D(2) dopamine receptor (P14416 whole entry): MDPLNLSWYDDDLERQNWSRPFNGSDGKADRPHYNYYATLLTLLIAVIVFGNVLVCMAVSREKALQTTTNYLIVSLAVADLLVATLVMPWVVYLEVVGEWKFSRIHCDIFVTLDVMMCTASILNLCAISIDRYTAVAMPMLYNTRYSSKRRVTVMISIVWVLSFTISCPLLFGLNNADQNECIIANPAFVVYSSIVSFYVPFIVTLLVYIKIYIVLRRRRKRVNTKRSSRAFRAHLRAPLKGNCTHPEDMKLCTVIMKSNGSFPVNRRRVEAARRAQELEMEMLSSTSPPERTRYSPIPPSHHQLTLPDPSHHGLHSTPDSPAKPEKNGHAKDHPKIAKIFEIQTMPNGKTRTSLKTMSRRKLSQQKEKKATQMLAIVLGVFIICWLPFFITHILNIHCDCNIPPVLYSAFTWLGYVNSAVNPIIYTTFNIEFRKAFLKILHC
Regarding `COc1cc(N)c(Cl)cc1C(=O)NC[C@@H]1CCN2CCC[C@@H]12`, the IC50 was over 10 µM.
`COc1cc(N)c(Cl)cc1C(=O)N[C@@H]1C2CC3CN(C2)CC31` (stereo partly specified) showed an IC50 of over 10 µM.
Still for that read-out and setting: then `Cn1nc(C(=O)OC[C@@H]2CCN3CCC[C@@H]23)c2ccccc21` (single isomer, unassigned), with over 10 µM.
Still for that read-out and setting: next, `O=C(OC[C@@H]1CCN2CCC[C@@H]12)c1c[nH]c2ccccc12`: over 10 µM; `O=C(NC[C@@H]1CCN2CCC[C@@H]12)c1cc(Cl)cn2ccnc12`: over 10 µM; `O=C(OC[C@@H]1CCN2CCC[C@@H]12)c1[nH]nc2ccccc12` (single isomer, unassigned): over 10 µM.

The target in the next test is T1, Adrenergic receptor alpha-2 (Homo sapiens, UniProt P08913+P18825+P18089).
T1 sequence (P08913 whole entry): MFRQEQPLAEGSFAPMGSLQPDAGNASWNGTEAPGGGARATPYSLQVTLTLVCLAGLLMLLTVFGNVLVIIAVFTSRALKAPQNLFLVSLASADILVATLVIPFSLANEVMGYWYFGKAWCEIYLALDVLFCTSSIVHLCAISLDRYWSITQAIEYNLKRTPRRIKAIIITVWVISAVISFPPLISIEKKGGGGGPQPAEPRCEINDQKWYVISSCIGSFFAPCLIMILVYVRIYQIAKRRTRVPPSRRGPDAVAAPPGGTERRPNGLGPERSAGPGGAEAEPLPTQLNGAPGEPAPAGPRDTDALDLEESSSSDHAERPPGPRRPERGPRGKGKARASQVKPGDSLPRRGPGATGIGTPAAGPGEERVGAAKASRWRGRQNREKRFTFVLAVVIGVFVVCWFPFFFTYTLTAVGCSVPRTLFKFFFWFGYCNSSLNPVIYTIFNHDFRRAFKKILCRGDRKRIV
T1 sequence (P18825 whole entry): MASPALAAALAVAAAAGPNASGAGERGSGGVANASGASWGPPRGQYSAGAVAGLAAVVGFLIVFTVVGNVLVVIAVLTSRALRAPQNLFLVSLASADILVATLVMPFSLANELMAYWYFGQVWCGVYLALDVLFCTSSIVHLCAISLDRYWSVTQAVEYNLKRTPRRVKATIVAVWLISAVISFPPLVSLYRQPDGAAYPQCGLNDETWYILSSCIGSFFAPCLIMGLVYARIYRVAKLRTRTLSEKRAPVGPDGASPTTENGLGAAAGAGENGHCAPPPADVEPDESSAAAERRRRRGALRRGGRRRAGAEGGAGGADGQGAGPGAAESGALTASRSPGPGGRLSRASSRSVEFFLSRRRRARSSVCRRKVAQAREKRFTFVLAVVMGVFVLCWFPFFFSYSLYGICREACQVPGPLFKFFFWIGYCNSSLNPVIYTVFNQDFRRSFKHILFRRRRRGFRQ
T1 sequence (P18089 whole entry): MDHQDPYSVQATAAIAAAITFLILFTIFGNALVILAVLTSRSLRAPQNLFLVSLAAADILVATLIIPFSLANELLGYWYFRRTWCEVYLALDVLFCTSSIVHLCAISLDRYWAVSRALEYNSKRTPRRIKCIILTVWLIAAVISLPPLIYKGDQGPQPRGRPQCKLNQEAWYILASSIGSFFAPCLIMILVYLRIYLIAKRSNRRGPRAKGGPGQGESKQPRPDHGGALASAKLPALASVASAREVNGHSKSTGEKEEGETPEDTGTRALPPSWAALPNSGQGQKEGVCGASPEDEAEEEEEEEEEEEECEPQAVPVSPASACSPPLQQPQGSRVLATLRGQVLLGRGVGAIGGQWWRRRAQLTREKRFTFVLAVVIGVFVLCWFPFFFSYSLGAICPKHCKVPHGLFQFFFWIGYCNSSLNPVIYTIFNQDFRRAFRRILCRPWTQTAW
The test is described as follows: Binding affinity to adrenergic alpha-2 receptor. The class given is protein assay.
In turn, `COc1cc(N)c(Cl)cc1C(=O)NC[C@@H]1CCN2CCC[C@@H]12` came in with an IC50 of over 10 µM.
Still for that read-out and setting: then `COc1cc(N)c(Cl)cc1C(=O)N[C@@H]1C2CC3CN(C2)CC31` (stereo partly specified), with over 10 µM; and `Cn1nc(C(=O)OC[C@@H]2CCN3CCC[C@@H]23)c2ccccc21` (single isomer, unassigned), with over 10 µM; and `O=C(OC[C@@H]1CCN2CCC[C@@H]12)c1c[nH]c2ccccc12`, with over 10 µM.
Still for that read-out and setting: next, `O=C(NC[C@@H]1CCN2CCC[C@@H]12)c1cc(Cl)cn2ccnc12`: over 10 µM; `O=C(OC[C@@H]1CCN2CCC[C@@H]12)c1[nH]nc2ccccc12` (single isomer, unassigned): over 10 µM.

A further test has as its target Beta-1 adrenergic receptor (Homo sapiens, UniProt P08588). The test is described as follows: Binding affinity to adrenergic beta-1 receptor.
Compound `COc1cc(N)c(Cl)cc1C(=O)NC[C@@H]1CCN2CCC[C@@H]12` registered an IC50 of over 10 µM.
Still for that read-out and setting: next, `COc1cc(N)c(Cl)cc1C(=O)N[C@@H]1C2CC3CN(C2)CC31` (stereo partly specified): over 10 µM; `Cn1nc(C(=O)OC[C@@H]2CCN3CCC[C@@H]23)c2ccccc21` (single isomer, unassigned): over 10 µM.
The compound `O=C(OC[C@@H]1CCN2CCC[C@@H]12)c1c[nH]c2ccccc12` registered a 50% inhibitory concentration (IC50) of over 10 µM.
In the case of `O=C(NC[C@@H]1CCN2CCC[C@@H]12)c1cc(Cl)cn2ccnc12`, the IC50 is over 10 µM.
`O=C(OC[C@@H]1CCN2CCC[C@@H]12)c1[nH]nc2ccccc12` (single isomer, unassigned) came in with an IC50 of over 10 µM.

Another test concerns the target 5-hydroxytryptamine receptor 4 (Cavia porcellus, UniProt O70528). As to the kind of experiment: Displacement of [3H]GR-113808 from 5HT4 receptor in guinea pig striatum.
Compound `COc1cc(N)c(Cl)cc1C(=O)NC[C@@H]1CCN2CCC[C@@H]12` registered a Ki of 0.0052 µM.
The same measure, in the same setting: next, `COc1cc(N)c(Cl)cc1C(=O)N[C@@H]1C2CC3CN(C2)CC31` (stereo partly specified): 0.029 µM; `Cn1nc(C(=O)OC[C@@H]2CCN3CCC[C@@H]23)c2ccccc21` (single isomer, unassigned): 0.0004 µM; `O=C(OC[C@@H]1CCN2CCC[C@@H]12)c1c[nH]c2ccccc12`: 0.000183 µM.
Still for that read-out and setting: then `O=C(NC[C@@H]1CCN2CCC[C@@H]12)c1cc(Cl)cn2ccnc12`, with 0.0014 µM; and `O=C(OC[C@@H]1CCN2CCC[C@@H]12)c1[nH]nc2ccccc12` (single isomer, unassigned), with 0.0008 µM.

The next test concerns the target D(1A) dopamine receptor (Homo sapiens, UniProt P21728). As to the kind of experiment: Binding affinity to dopamine receptor D1.
`COc1cc(N)c(Cl)cc1C(=O)NC[C@@H]1CCN2CCC[C@@H]12` returned an IC50 of over 10 µM.
Still for that read-out and setting: next, `COc1cc(N)c(Cl)cc1C(=O)N[C@@H]1C2CC3CN(C2)CC31` (stereo partly specified): over 10 µM.
The same measure, in the same setting: then `Cn1nc(C(=O)OC[C@@H]2CCN3CCC[C@@H]23)c2ccccc21` (single isomer, unassigned), with over 10 µM.
In turn, `O=C(OC[C@@H]1CCN2CCC[C@@H]12)c1c[nH]c2ccccc12` had an IC50 of over 10 µM.
On the same count and under the same terms, next, `O=C(NC[C@@H]1CCN2CCC[C@@H]12)c1cc(Cl)cn2ccnc12`: over 10 µM.
Turning to `O=C(OC[C@@H]1CCN2CCC[C@@H]12)c1[nH]nc2ccccc12` (single isomer, unassigned), the IC50 was over 10 µM.

For the origin of these results see ChEMBL document CHEMBL1149398, “Pyrrolizidine esters and amides as 5-HT4 receptor agonists and antagonists” (J Med Chem, 2006).
